{"source": "ChEMBL document CHEMBL4602617", "about": "“Discovery and optimization of heteroaryl piperazines as potent and selective PI3Kδ inhibitors” (Bioorg Med Chem Lett, 2020)", "key": {"[1]": {"biological_target": "Sodium-dependent serotonin transporter (Homo sapiens) (UniProt P31645)", "assay": "Displacement of [3H]paroxetine from full length recombinant human […] expressed in HEK293 cells at 10 uM after 60 mins by radiometric scintillation analysis relative to control", "format": "cell-based"}, "[2]": {"biological_target": "Platelet-activating factor receptor (Homo sapiens) (UniProt P25105)", "sequence (P25105 whole entry)": "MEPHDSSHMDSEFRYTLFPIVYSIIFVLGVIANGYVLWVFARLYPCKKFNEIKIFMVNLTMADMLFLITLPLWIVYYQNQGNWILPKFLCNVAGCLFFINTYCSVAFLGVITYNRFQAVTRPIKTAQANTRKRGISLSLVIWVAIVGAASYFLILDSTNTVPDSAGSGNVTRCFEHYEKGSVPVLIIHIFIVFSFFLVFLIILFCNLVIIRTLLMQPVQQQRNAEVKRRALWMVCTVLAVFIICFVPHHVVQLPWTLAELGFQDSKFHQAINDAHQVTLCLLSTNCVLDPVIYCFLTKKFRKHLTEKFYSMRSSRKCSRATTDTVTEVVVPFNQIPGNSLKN", "assay": "Inhibition of human PAF at 10 uM relative to control"}, "[3]": {"biological_target": "Phosphatidylinositol 4,5-bisphosphate 3-kinase catalytic subunit gamma isoform (Homo sapiens, UniProt P48736)", "sequence (P48736 whole entry, canonical isoform)": "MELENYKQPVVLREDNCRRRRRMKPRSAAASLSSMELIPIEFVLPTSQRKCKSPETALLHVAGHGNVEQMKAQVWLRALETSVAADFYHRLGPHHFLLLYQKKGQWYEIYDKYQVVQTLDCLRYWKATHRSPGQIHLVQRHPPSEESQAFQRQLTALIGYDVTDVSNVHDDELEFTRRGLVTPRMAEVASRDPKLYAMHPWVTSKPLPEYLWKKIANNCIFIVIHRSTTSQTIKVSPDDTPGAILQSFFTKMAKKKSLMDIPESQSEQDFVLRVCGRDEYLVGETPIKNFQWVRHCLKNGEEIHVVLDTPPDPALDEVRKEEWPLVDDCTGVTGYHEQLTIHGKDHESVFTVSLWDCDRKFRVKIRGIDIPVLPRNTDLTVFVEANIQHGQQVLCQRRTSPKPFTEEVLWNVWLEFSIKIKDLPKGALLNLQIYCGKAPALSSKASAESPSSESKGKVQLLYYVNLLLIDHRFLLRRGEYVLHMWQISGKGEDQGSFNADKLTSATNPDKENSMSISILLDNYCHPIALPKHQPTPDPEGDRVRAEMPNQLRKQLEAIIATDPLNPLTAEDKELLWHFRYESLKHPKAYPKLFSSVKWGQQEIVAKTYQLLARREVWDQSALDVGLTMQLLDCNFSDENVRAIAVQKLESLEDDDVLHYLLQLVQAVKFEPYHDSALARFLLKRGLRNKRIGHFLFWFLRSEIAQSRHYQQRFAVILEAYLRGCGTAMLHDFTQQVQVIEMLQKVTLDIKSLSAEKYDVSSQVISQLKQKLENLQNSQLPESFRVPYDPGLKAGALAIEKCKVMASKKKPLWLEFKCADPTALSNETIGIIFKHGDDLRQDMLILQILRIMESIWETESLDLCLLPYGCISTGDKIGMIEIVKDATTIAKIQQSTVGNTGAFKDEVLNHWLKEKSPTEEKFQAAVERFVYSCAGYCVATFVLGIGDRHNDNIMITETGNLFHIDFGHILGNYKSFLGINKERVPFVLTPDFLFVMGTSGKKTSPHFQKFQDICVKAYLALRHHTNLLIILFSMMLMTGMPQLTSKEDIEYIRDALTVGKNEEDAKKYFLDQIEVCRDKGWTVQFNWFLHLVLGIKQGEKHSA", "assay": "Inhibition of His-tagged recombinant human full length PI3K p110gamma expressed in baculovirus expression system using PIP2:PS lipid as substrate incubated for 1 hr in presence of ATP by Adapta assay"}, "[4]": {"biological_target": "Peroxisome proliferator-activated receptor alpha (Homo sapiens) (UniProt Q07869)", "assay": "Inhibition of human PPARalpha expressed in Escherichia coli at 10 uM relative to control"}, "[5]": {"biological_target": "Tyrosine-protein kinase Blk (Homo sapiens, UniProt P51451)", "assay": "Inhibition of recombinant full length human His-tagged BLK cytoplasmic domain expressed in baculovirus expression system using tyrosine-1 peptide as substrate incubated for 60 mins in presence of ATP by Z'-LYTE assay"}, "[6]": {"biological_target": "Tyrosine-protein kinase Yes (Homo sapiens, UniProt P07947)", "sequence (P07947 whole entry)": "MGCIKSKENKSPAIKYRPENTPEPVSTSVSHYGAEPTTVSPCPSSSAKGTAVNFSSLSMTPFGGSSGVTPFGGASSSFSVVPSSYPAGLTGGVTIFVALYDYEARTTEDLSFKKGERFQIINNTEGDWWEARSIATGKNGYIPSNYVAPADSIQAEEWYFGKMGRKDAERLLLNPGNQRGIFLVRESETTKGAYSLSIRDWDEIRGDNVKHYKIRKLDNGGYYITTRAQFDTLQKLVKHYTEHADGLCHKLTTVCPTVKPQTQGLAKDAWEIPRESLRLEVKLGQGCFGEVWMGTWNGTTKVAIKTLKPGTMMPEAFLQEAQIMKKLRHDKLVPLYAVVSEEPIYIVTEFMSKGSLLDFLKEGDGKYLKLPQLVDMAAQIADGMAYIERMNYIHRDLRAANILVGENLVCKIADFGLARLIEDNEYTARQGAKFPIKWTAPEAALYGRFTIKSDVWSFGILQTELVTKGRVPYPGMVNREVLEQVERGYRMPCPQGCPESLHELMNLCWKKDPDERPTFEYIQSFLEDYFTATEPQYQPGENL", "assay": "Inhibition of full length recombinant GST-tagged human YES1 expressed in baculovirus expression system using tyr 02 peptide as substrate after 1 hr in presence of ATP by Z'-LYTE assay"}, "[7]": {"biological_target": "Tyrosine-protein kinase Lyn (Homo sapiens, UniProt P07948)", "assay": "Inhibition of recombinant full length human GST-tagged LYN-A expressed in insect cells using tyrosine-2 peptide as substrate incubated for 60 mins in presence of ATP by Z'-LYTE assay"}, "[8]": {"biological_target": "Fibroblast growth factor receptor 1 (Homo sapiens, UniProt P11362)", "sequence (P11362 whole entry, the tested form may be a part)": "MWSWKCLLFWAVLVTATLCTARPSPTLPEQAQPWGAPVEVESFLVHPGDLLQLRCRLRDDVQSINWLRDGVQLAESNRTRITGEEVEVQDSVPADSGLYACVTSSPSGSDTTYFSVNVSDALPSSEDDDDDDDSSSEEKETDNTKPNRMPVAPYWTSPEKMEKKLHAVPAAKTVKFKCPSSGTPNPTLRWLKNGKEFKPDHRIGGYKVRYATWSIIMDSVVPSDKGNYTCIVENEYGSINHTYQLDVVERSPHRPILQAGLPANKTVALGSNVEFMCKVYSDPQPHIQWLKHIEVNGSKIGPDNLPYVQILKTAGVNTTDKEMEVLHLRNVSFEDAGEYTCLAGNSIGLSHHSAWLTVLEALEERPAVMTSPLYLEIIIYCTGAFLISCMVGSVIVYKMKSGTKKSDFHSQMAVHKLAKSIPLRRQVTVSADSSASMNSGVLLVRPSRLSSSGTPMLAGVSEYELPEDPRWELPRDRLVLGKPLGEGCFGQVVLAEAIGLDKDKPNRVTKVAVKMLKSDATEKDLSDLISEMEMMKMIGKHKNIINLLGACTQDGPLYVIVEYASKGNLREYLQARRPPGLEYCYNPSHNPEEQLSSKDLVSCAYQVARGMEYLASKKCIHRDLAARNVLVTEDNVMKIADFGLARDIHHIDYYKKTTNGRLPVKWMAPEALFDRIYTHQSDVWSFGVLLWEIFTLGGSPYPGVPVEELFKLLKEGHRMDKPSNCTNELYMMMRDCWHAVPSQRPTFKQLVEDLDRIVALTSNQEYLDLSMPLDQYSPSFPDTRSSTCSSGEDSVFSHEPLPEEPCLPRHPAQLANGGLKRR", "assay": "Inhibition of recombinant His-tagged human FGFR1 cytoplasmic domain expressed in baculovirus expression system using Tyr 04 peptide as substrate after 1 hr in presence of ATP by Z'-LYTE assay"}, "[9]": {"biological_target": "Calcium/calmodulin-dependent protein kinase type II subunit delta (Homo sapiens, UniProt Q13557)", "assay": "Inhibition of recombinant full length human His-tagged CAMK2D expressed in baculovirus expression system using serine/threonine-04 peptide as substrate incubated for 60 mins in presence of ATP by Z'-LYTE assay"}, "[10]": {"biological_target": "D(1A) dopamine receptor (Homo sapiens) (UniProt P21728)", "assay": "Displacement of [3H]SCH-23390 from recombinant full length human recombinant dopamine D1 receptor expressed in CHO cells at 10 uM measured after 120 mins by radiometric scintillation analysis relative to control", "format": "cell-based"}, "[11]": {"biological_target": "Protein kinase C delta type (Homo sapiens, UniProt Q05655)", "assay": "Inhibition of recombinant full length human GST-tagged PRKCD expressed in insect expression system using serine/threonine-7 peptide as substrate incubated for 60 mins in presence of ATP by Z'-LYTE assay"}, "[12]": {"biological_target": "Calcium/calmodulin-dependent protein kinase type 1D (Homo sapiens, UniProt Q8IU85)", "sequence (Q8IU85 whole entry)": "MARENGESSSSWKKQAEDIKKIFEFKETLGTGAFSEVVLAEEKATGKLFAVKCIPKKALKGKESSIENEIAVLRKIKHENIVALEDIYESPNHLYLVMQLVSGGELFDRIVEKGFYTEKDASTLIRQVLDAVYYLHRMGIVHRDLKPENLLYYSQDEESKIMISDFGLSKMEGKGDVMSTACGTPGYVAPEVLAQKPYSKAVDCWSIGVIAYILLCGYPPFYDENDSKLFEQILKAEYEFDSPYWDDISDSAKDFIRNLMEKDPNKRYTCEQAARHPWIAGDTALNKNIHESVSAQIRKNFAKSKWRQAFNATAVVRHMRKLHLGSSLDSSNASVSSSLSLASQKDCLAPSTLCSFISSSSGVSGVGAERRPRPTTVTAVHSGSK", "assay": "Inhibition of recombinant full length human His-tagged CAMK1delta expressed in baculovirus expression system using serine/threonine-25 peptide as substrate incubated for 60 mins in presence of ATP by Z'-LYTE assay"}, "[13]": {"biological_target": "Casein kinase I isoform gamma-3 (Homo sapiens, UniProt Q9Y6M4)", "assay": "Inhibition of recombinant human full-length GST-tagged CSNK1G3 expressed in baculovirus expression system using FRET-labeled Ser/Thr 05 peptide as substrate measured after 1 hr in presence of ATP by Z'-lyte assay"}, "[14]": {"biological_target": "Cysteinyl leukotriene receptor 2 (Homo sapiens) (UniProt Q9NS75)", "assay": "Inhibition of human CYSLt2 receptor at 10 uM relative to control"}, "[15]": {"biological_target": "3-phosphoinositide-dependent protein kinase 1 (Homo sapiens, UniProt O15530)", "assay": "Inhibition of full length recombinant His-tagged human PDK1 expressed in baculovirus expression system using Ser/Thr 07 as substrate after 1 hr in presence of ATP by Z'LYTE assay"}, "[16]": {"biological_target": "Beta-adrenergic receptor kinase 1 (Homo sapiens, UniProt P25098)", "assay": "Inhibition of recombinant full length human His-tagged GRK2 expressed in baculovirus expression system using serine/threonine-16 peptide as substrate incubated for 60 mins in presence of ATP by Z'-LYTE assay"}, "[17]": {"assay": "Distribution coefficient, logD of compound by HPLC analysis", "format": "physicochemical", "conditions": "octanol/water"}, "[18]": {"biological_target": "Progesterone receptor (Homo sapiens) (UniProt P06401)", "assay": "Inhibition of human progesterone B receptor at 10 uM relative to control"}, "[19]": {"assay": "Oral bioavailability in rat at 0.5 mg/kg", "format": "ADME, organism-based", "conditions": "in vivo"}, "Homo sapiens": {"species_on_record": "Homo sapiens", "assay": "Selectivity index, ratio IC50 for inhibition of recombinant human N-terminal His6-tagged full-length p120gamma expressed in Sf21 insect cells to ratio IC50 for inhibition of recombinant human full-length N-terminal GST-tagged p110delta/untagged full-length p85alpha expressed in baculovirus infected Sf21 cells"}, "[20]": {"biological_target": "Vascular endothelial growth factor receptor 2 (Homo sapiens, UniProt P35968)", "assay": "Inhibition of recombinant human His-tagged KDR (789 to 1356 residues) expressed in baculovirus expression system using Tyr1 as substrate incubated for 1 hr in presence of ATP by Z'-LYTE assay"}, "Ephrin type-A receptor 4": {"biological_target": "Ephrin type-A receptor 4 (Homo sapiens, UniProt P54764)", "assay": "Inhibition of recombinant human GST-tagged EPHA4 cytoplasmic domain expressed in baculovirus expression system using tyrosine-02 peptide as substrate incubated for 60 mins in presence of ATP by Z'-Lyte assay"}, "[21]": {"biological_target": "Serine/threonine-protein kinase Sgk2 (Homo sapiens, UniProt Q9HBY8)", "assay": "Inhibition of recombinant human GST-tagged SGK2 catalytic domain (54 to 427 residues) expressed in baculovirus expression system using serine/threonine-6 peptide as substrate incubated for 60 mins in presence of ATP by Z'-LYTE assay"}, "[22]": {"biological_target": "Insulin receptor-related protein (Homo sapiens, UniProt P14616)", "assay": "Inhibition of recombinant human GST-tagged INSRR cytoplasmic domain expressed in baculovirus expression system using tyrosine-1 peptide as substrate incubated for 60 mins in presence of ATP by Z'-LYTE assay"}, "[23]": {"biological_target": "Serine/threonine-protein kinase PLK2 (Homo sapiens, UniProt Q9NYY3)", "sequence (Q9NYY3 whole entry)": "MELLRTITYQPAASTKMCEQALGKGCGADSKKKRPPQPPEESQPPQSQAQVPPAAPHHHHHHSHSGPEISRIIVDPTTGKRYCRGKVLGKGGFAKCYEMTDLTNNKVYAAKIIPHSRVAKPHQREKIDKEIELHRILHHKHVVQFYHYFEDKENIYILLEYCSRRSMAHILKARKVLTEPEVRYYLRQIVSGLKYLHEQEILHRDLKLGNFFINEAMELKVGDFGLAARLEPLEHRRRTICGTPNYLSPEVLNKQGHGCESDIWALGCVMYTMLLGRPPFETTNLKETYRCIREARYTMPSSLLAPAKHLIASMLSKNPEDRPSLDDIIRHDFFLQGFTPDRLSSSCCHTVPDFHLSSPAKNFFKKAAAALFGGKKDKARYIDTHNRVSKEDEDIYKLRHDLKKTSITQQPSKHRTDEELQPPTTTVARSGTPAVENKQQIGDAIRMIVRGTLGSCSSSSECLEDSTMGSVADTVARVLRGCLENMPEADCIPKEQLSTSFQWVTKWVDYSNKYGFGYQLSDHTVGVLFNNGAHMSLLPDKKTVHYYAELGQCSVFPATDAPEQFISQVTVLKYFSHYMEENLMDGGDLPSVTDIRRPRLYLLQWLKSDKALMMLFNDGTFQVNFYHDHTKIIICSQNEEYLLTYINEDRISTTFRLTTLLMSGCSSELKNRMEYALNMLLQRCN", "assay": "Inhibition of recombinant full length human GST-tagged PLK2 expressed in baculovirus expression system using serine/threonine-16 peptide as substrate incubated for 60 mins in presence of ATP by Z'-LYTE assay"}, "[24]": {"biological_target": "Melanocortin receptor 4 (Homo sapiens) (UniProt P32245)", "sequence (P32245 whole entry)": "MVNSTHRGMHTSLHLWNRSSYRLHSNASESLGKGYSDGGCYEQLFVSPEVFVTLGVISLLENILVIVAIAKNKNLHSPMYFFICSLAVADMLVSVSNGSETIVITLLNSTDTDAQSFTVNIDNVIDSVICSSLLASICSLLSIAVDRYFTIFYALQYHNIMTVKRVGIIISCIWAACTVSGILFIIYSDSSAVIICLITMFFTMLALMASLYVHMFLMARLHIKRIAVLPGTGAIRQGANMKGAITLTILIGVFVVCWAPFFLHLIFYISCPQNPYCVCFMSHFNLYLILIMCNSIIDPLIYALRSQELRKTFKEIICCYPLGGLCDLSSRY", "assay": "Displacement of [125I]NDP-alpha-MSH from full length human recombinant MC4 receptor expressed in HEK293 cells at 10 uM measured after 120 mins by radiometric scintillation analysis relative to control", "format": "cell-based"}, "[25]": {"biological_target": "Serine/threonine-protein kinase MARK1 (Homo sapiens, UniProt Q9P0L2)", "sequence (Q9P0L2 whole entry)": "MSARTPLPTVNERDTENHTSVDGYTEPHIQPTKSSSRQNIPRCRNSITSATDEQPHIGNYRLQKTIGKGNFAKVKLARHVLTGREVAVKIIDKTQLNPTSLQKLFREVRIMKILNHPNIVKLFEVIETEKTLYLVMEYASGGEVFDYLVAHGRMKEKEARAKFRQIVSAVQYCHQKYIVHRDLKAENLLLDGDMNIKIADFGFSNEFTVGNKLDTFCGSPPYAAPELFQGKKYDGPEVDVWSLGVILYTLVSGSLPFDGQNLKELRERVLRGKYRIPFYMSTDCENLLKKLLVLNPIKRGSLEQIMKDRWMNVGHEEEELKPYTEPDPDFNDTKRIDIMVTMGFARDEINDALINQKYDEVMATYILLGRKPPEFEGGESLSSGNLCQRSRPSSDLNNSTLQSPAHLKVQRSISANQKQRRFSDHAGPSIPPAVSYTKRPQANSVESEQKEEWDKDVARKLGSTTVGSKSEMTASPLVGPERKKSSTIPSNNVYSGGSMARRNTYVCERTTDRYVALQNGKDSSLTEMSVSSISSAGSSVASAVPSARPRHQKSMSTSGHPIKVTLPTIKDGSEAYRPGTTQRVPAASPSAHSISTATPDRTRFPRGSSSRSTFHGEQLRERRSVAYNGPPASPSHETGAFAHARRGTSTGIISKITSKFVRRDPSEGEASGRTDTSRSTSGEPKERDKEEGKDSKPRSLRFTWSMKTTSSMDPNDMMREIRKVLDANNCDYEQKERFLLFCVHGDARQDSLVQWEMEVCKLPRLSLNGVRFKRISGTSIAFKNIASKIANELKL", "assay": "Inhibition of recombinant full length human GST-tagged MARK1 expressed in baculovirus expression system using serine/threonine-21 peptide as substrate incubated for 60 mins in presence of ATP by Z'-LYTE assay"}}, "data": [{"compound": "C[C@@H]1C[C@H]1C(=O)N1CCN(c2cnc(C#N)c(-c3cnn(C)c3)n2)C[C@H]1C", "values": [{"measurement": "inhibition", "setting": "[1]", "value": 0, "unit": "%"}, {"measurement": "inhibition", "setting": "[2]", "value": -5, "unit": "%"}, {"measurement": "IC50", "setting": "[3]", "value": 945, "unit": "nM"}, {"measurement": "inhibition", "setting": "[4]", "value": "> 50", "unit": "%"}, {"measurement": "IC50", "setting": "[5]", "value": "> 100", "unit": "µM"}, {"measurement": "IC50", "setting": "[6]", "value": 37, "unit": "µM"}, {"measurement": "IC50", "setting": "[7]", "value": "> 100", "unit": "µM"}, {"measurement": "IC50", "setting": "[8]", "value": "> 100", "unit": "µM"}, {"measurement": "IC50", "setting": "[9]", "value": "> 100", "unit": "µM"}, {"measurement": "inhibition", "setting": "[10]", "value": 2, "unit": "%"}, {"measurement": "IC50", "setting": "[11]", "value": "> 100", "unit": "µM"}, {"measurement": "IC50", "setting": "[12]", "value": "> 100", "unit": "µM"}, {"measurement": "IC50", "setting": "[13]", "value": "> 100", "unit": "µM"}, {"measurement": "inhibition", "setting": "[14]", "value": 15, "unit": "%"}, {"measurement": "IC50", "setting": "[15]", "value": "> 100", "unit": "µM"}, {"measurement": "IC50", "setting": "[16]", "value": "> 100", "unit": "µM"}, {"measurement": "logD", "setting": "[17]", "value": 1.6}, {"measurement": "inhibition", "setting": "[18]", "value": 0, "unit": "%"}, {"measurement": "bioavailability", "setting": "[19]", "value": 79, "unit": "%"}, {"measurement": "Ratio IC50", "setting": "Homo sapiens", "value": 847}, {"measurement": "IC50", "setting": "[20]", "value": 37.6, "unit": "µM"}, {"measurement": "IC50", "setting": "Ephrin type-A receptor 4", "value": "> 100", "unit": "µM"}, {"measurement": "IC50", "setting": "[21]", "value": "> 100", "unit": "µM"}, {"measurement": "IC50", "setting": "[22]", "value": "> 100", "unit": "µM"}, {"measurement": "IC50", "setting": "[23]", "value": "> 100", "unit": "µM"}, {"measurement": "inhibition", "setting": "[24]", "value": 5, "unit": "%"}, {"measurement": "IC50", "setting": "[25]", "value": "> 100", "unit": "µM"}]}]}
